{"source": "patent US8252798B2", "about": "“Purine compounds” (Eli Lilly and Company, priority 2008, dated 2012)", "key": {"male Lewis rats": {"system": "male Lewis rats", "test": "Monoiodoacetate (MIA) model, incapacitance testing of knee pain", "assay_type": "in vivo", "conditions": "rat MIA model", "description": "For all studies male Lewis rats of approximately 8 weeks of age at the time of MIA injection are used to measure pain in the MIA model. The rats are housed in groups of 2 or 3 per cage and maintained in a constant temperature and on a 12 hour light/12 hour dark cycle. Animals have free access to food and water at all times except during data collection.\nIn the standard MIA model the right knees of each rat are injected with 0.3 mg MIA in 50 ul of saline and the left knees with 50 ul of saline. Pain is measured at varying times after MIA injection (not normally before 10 day post MIA injection) using incapacitance testing. This measures the difference in hind paw weight bearing between the MIA and saline injected knees, and each measurement is the average of 3 separate measurements each measured over 1 second.\nFor studies with CB2 agonists rats are randomized into dose groups (n=5 or 6) and then dosed once with the compound under investigation. Dosing is staggered by 15 minutes for each rat and at a predetermined time post-dose (usually 2 hours), pain measured using incapacitance testing. Studies are routinely run with 4 groups, vehicle (1% carboxy methyl cellulose in water plus 0.25% polysorbate 80) and 3 compound groups which can be either single compounds at a single dose or the same compound at 3 doses. […]"}, "hCB2-Sf9 membranes": {"biological_target": "T1, hCB2-Sf9 membranes (Homo sapiens, UniProt P34972)", "T1 construct": "expressed in transfected cells; host or cells: Sf9", "T1 sequence (P34972 whole entry)": "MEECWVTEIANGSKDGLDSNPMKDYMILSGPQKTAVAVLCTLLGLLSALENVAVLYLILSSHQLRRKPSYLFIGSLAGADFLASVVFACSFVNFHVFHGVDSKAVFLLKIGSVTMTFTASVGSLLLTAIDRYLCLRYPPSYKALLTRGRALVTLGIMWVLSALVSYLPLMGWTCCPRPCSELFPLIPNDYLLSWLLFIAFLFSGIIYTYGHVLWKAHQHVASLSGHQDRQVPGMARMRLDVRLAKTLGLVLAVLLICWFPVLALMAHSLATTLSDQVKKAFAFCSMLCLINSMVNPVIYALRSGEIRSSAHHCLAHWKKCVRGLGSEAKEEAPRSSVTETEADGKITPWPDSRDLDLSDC", "test": "CB2 in vitro functional assay, SPA based GTP-γ-35S binding, agonist mode (antibody capture)", "assay_type": "biochemical", "conditions": "normalized to full agonist methanandamide, read-out: relative EC50 value for CB2", "description": "(§1) Exemplified compounds are tested in agonist mode using a SPA based GTP-γ-^35S binding assay. All assay components are prepared in assay buffer made up of 20 mM HEPES, 100 mM NaCl, 5 mM MgCl2, (pH 7.4 at room temperature). Semi-log compound dilutions are done in assay buffer containing BSA (final 0.125%). GTP-γ^35-S binding is measured in a 96 well format using a whole membrane capture technique for the CB1 assay and modifications of an antibody capture technique previously described (DeLapp et al. J Pharmacol Exp Ther 289:946-955, 1999) for the CB2 assay. All incubations are done at room temperature.\nhCB2-Sf9 membranes and GDP (1 uM final) are added to assay buffer and homogenized. Diluted compounds and membranes are added to the assay plate and pre-incubated for 15 minutes. This is followed by addition of GTP-γ-^35S (500 nM final) and another 35 minute incubation. Next a mixture containing Nonidet® P40 detergent (0.2% final), anti-Gi antibody (final dilution of 1:362), and 1.25 mg anti-rabbit antibody scintillation proximity assay beads is added. The plates are then sealed, vortexed, and incubated for an additional 2 hours before centrifuging and counting as for CB1.\nTo analyze data, first subtract background from all wells. Determine percent agonist efficacy by normalizing agonist/inverse agonist dose response data to a full agonist (methanandamide) response. […]"}, "hCB1-CHO membranes": {"biological_target": "T2, hCB1-CHO membranes (Homo sapiens, UniProt P21554)", "T2 construct": "expressed in transfected cells; host or cells: CHO", "T2 sequence (P21554 whole entry)": "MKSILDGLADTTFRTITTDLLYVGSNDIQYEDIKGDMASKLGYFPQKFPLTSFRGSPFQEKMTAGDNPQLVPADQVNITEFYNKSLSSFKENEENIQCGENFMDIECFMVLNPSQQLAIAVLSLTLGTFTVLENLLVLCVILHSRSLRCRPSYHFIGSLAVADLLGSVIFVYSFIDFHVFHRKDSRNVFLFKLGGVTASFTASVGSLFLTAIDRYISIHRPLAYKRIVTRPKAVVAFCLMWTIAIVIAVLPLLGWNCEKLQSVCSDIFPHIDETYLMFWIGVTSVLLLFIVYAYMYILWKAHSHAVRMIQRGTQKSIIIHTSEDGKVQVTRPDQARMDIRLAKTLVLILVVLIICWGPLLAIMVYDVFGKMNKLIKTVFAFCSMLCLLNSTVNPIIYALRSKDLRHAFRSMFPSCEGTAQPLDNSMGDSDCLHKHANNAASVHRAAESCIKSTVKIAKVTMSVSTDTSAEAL", "test": "CB1 in vitro functional assay, SPA based GTP-γ-35S binding, agonist mode (whole membrane capture)", "assay_type": "biochemical", "conditions": "normalized to full agonist methanandamide, read-out: relative EC50 value for CB1", "description": "as §1\nhCB1-CHO membranes, GDP (1 uM final), and saponin (10 ug/mL final) are added to assay buffer and homogenized. Diluted compounds, GTP-γ-^35S (500 nM final) and membranes are added to the assay plate and incubated for 30 minutes. Then 1 mg/well Wheatgerm Agglutinin SPA bead is added, and the plates are sealed, vortexed, and incubated for an additional hour. Plates are then centrifuged at 700×g for 10 minutes and counted for 1 minute per well using a scintillation counter.\nTo analyze data, first subtract background from all wells. Determine percent agonist efficacy by normalizing agonist/inverse agonist dose response data to a full agonist (methanandamide) response. Analyze the data using a 4-parameter logistic reduced fit with Activity Base and XLFit3."}, "human CB2 receptor": {"biological_target": "T3, human CB2 receptor (Homo sapiens, UniProt P34972)", "T3 construct": "expressed in transfected cells", "T3 sequence (P34972 whole entry)": "as the sequence (P34972 whole entry) above", "test": "Displacement of 3H-CP55940 from human CB2 receptors", "assay_type": "binding", "conditions": "displacement of 3H-CP55940, human CB2 membrane homogenates", "description": "(§2) The methods of Felder et al. (Mol. Pharmaocol. 48:443-450, 1995) were utilized with minor modifications. Specifically, membrane homogenates from cells stably or transiently expressing the human or rat CB2 receptor were washed by centrifugation and diluted into a 50 mM Tris HCl (pH 7.4), 5 mM MgCl2, 2.5 mM EDTA, and 0.1% BSA buffer. Specific binding of 3H-CP55940 was defined with 1 μM CP55940. The ability of compounds to displace specific 3H-CP55940 binding was tested over a range of concentrations in the Tris, MgCl2, EDTA, BSA buffer in the presence of 1% dimethyl sulfoxide by incubating at room temperature for 90 minutes in a volume of 300 μl. Unifilter 96-well microplates pretreated with 0.5% polyvinylpyrrolidone, 0.1% polysorbate 20 in water were washed three times with cold Tris buffer. The reaction mixture was then transferred to the filter plate immediately before terminating the incubation by rapid filtration and three 200 μl washes with cold Tris buffer. After the filter plates dried, microscint 20 was added to each well, the plate sealed and counted for determination of disintegrations per minute. The displacement curves were graphed and the resulting Ki values determined utilizing Graphpad Prism."}, "rat CB2 receptor": {"biological_target": "T4, rat CB2 receptor (Rattus norvegicus, UniProt Q9QZN9)", "T4 construct": "expressed in transfected cells", "T4 sequence (Q9QZN9 1-360)": "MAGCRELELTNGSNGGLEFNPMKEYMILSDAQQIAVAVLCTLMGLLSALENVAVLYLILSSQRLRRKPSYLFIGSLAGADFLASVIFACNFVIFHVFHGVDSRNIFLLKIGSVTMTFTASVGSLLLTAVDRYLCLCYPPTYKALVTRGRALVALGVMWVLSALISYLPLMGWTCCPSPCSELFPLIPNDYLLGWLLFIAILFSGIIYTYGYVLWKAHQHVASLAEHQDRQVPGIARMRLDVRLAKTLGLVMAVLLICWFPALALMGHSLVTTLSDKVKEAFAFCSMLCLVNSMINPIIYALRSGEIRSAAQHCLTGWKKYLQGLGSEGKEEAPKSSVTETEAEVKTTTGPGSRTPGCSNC", "test": "Displacement of 3H-CP55940 from rat CB2 receptors", "assay_type": "binding", "conditions": "displacement of 3H-CP55940, rat CB2 membrane homogenates", "description": "as §2"}}, "note": "Structures can show the parent of a compound that is named as a salt.", "data": [{"smiles": "Cc1nc(N2CCN(C)CC2)c2nc(-c3ccccc3Cl)n([C@@H]3CCOC3)c2n1.Cl", "note": "[Example 88, 8-(2-Chloro-phenyl)-2-methyl-6-(4-methyl-piperazin-1-yl)-9-(R)-tetrahydro-furan-3-yl-9H-purine hydrochloride salt]", "values": [{"measurement": "pain versus vehicle (difference in hind paw weight bearing)", "setting": "male Lewis rats; oral dose 0.3 mg/kg", "result": "significantly reduce pain versus vehicle"}, {"measurement": "pain versus vehicle (difference in hind paw weight bearing)", "setting": "male Lewis rats; oral dose 1 mg/kg", "result": "significantly reduce pain versus vehicle"}]}, {"smiles": "Cc1nc(N2CCN3C(=O)CCC3C2)c2nc(-c3ccccc3Cl)n(CC3CCOCC3)c2n1", "note": "(single isomer, unassigned) [Example 61, 2-[8-(2-Chloro-phenyl)-2-methyl-9-(tetrahydro-pyran-4-ylmethyl)-9H-purin-6-yl]-hexahydro-pyrrolo[1,2-a]pyrazin-6-one hydrochloride salt]", "values": [{"measurement": "EC50", "setting": "hCB2-Sf9 membranes", "result": 18, "unit": "nM"}, {"measurement": "EC50", "setting": "hCB1-CHO membranes", "result": 1950, "unit": "nM"}]}, {"smiles": "Cc1nc(N2CCN(C)CC2)c2nc(-c3cccnc3C3CC3)n([C@@H]3CCOC3)c2n1", "note": "[Example 76, 8-(2-Cyclopropyl-pyridin-3-yl)-2-methyl-6-(4-methyl-piperazin-1-yl)-9-(R)-tetrahydro-furan-3-yl-9H-purine hydrochloride salt]", "values": [{"measurement": "Ki", "setting": "human CB2 receptor", "result": 33.9, "unit": "nM"}, {"measurement": "Ki", "setting": "rat CB2 receptor", "result": 31.3, "unit": "nM"}]}]}
